Experimental findings from BindingDB's records for doi:10.1021/jm00040a004 (Glaxo Group Research, 1994) are described below.

One may read the IC50 as the concentration at which inhibition is half-maximal. A lower IC50 goes with higher potency.

The nature of the test: In vitro kappa-opioid receptor agonist activity in isolated rabbit vas deferens assay.
As for `O=C(Cc1ccc(Cl)c(Cl)c1)N1CCc2occc2[C@@H]1CN1CC[C@H](O)C1` [2-(3,4-Dichloro-phenyl)-1-[(R)-4-((S)-3-hydroxy-pyrrolidin-1-ylmethyl)-6,7-dihydro-4H-furo[3,2-c]pyridin-5-yl]-ethanone], the IC50 amounted to 1.1 nM. The figure for `CN(C)CC1c2ccoc2CCN1C(=O)Cc1ccc(Cl)c(Cl)c1` (stereo not given) [2-(3,4-Dichloro-phenyl)-1-(4-dimethylaminomethyl-6,7-dihydro-4H-furo[3,2-c]pyridin-5-yl)-ethanone] is 22 nM. Consider `Cc1cc2c(o1)CCN(C(=O)Cc1ccc(Cl)c(Cl)c1)C2CN1CCC(O)C1` (stereo not given) [2-(3,4-Dichloro-phenyl)-1-[4-(3-hydroxy-pyrrolidin-1-ylmethyl)-2-methyl-6,7-dihydro-4H-furo[3,2-c]pyridin-5-yl]-ethanone], for which the IC50 was found to be 0.39 nM. Next, `O=C1CCN(CC2c3ccoc3CCN2C(=O)Cc2ccc(Cl)c(Cl)c2)C1` (stereo not given) [1-{5-[2-(3,4-Dichloro-phenyl)-acetyl]-4,5,6,7-tetrahydro-furo[3,2-c]pyridin-4-ylmethyl}-pyrrolidin-3-one]: 6 nM. The figure for `O=C(Cc1ccc(Cl)c(Cl)c1)N1CCc2c(O)cccc2C1CN1CCC(O)C1` (stereo not given) [2-(3,4-Dichloro-phenyl)-1-[5-hydroxy-1-(3-hydroxy-pyrrolidin-1-ylmethyl)-3,4-dihydro-1H-isoquinolin-2-yl]-ethanone] is 3.8 nM. Next, `O=C(Cc1ccc(Cl)c(Cl)c1)N1CCc2occc2C1CN1CCC(O)C1` (stereo not given) [2-(3,4-Dichloro-phenyl)-1-[4-(3-hydroxy-pyrrolidin-1-ylmethyl)-6,7-dihydro-4H-furo[3,2-c]pyridin-5-yl]-ethanone]: 2.7 nM; `O=C(Cc1ccc(Cl)c(Cl)c1)N1CCc2occc2C1CN1CCCC1` (stereo not given) [2-(3,4-Dichloro-phenyl)-1-(4-pyrrolidin-1-ylmethyl-6,7-dihydro-4H-furo[3,2-c]pyridin-5-yl)-ethanone]: 15 nM; `O=C(Cc1ccc(Cl)c(Cl)c1)N1CCc2occc2[C@H]1CN1CC[C@@H](O)C1` [(RS)-2-(3,4-Dichloro-phenyl)-1-[4-(3-hydroxy-pyrrolidin-1-ylmethyl)-6,7-dihydro-4H-furo[3,2-c]pyridin-5-yl]-ethanone(GR 91272)]: 3.4 nM.

`O=C(Cc1ccc(Cl)c(Cl)c1)N1CCc2c(O)cccc2C1CN1CCCC1` (stereo not given) gave an IC50 of 0.11 nM.

The compound `O=C(Cc1ccc(Cl)c(Cl)c1)N1CCc2occc2C1CN1CC=CCC1` (stereo not given) [2-(3,4-Dichloro-phenyl)-1-[4-(3,6-dihydro-2H-pyridin-1-ylmethyl)-6,7-dihydro-4H-furo[3,2-c]pyridin-5-yl]-ethanone] showed an IC50 of 1.4 nM.
